According to patent publication US20260076372A1, “SPRAYABLE ANTIFUNGAL COMPOSITION FOR USE IN THE FIELD OF AGRICULTURE, AND ASSOCIATED METHOD AND USE” (GAIAGO, priority 2022, published 2026):

Tests used:
Assay type in all cases: cell-based
Plasmopara viticola = test: in vitro antifungal action of single ingredients on Plasmopara viticola
Description: In Vitro Results Showing the Syngergistic Action of Yucca Juice with the Other Compounds of the Composition According to the Invention on A. solani, Z. tritici, and Plasmopara viticola,
The following tables show in vitro the synergistic antifungal action between yucca juice and the other compounds of the composition of the invention on various pathogens. The concentrations given are as a mass %. The solutions tested as aqueous solutions.
Mo denotes sodium molybdate, Bo denotes boron ethanolamine.

[1] = tested on: Septoria tritici (Zymoseptoria tritici); test: in vitro 96-well micro-titration test on Septoria tritici / Zymoseptoria tritici; conditions: for EC95 (%): Z. tritici, Table 23, ingredient alone in water
Alternaria solani = test: in vitro 96-well micro-titration test on Alternaria solani spores; conditions: for EC95 (%): A. solani, Table 22, ingredient alone in water
[2] = Concentration 0.05% mass of the stated aqueous solution

Row | Compound | in vitro activity against Plasmopara viticola, ingredient alone in water (Plasmopara viticola; Concentration 0.05%) | in vitro activity against Plasmopara viticola, ingredient alone in water (Plasmopara viticola; Concentration 0.50%) | in vitro activity against Plasmopara viticola, ingredient alone in water (Plasmopara viticola; Concentration 1.00%) | in vitro activity against Plasmopara viticola, ingredient alone in water (Plasmopara viticola; Concentration 2.00%) | in vitro activity against Plasmopara viticola, ingredient alone in water (Plasmopara viticola; Concentration 3.00%) | in vitro activity against Plasmopara viticola, ingredient alone in water (Plasmopara viticola; Concentration 6.00%) | in vitro activity against Plasmopara viticola, ingredient alone in water (Plasmopara viticola; Concentration 10.00%) | inhibition of Z. tritici, ingredient alone in water ([1]; Concentration 0.05%) | inhibition of Z. tritici, ingredient alone in water ([1]; Concentration 0.50%) | inhibition of Z. tritici, ingredient alone in water ([1]; Concentration 1.00%) | inhibition of Z. tritici, ingredient alone in water ([1]; Concentration 2.00%) | inhibition of Z. tritici, ingredient alone in water ([1]; Concentration 3.00%) | inhibition of Z. tritici, ingredient alone in water ([1]; Concentration 6.00%) | EC95 (%) (Alternaria solani) | inhibition of A. solani, ingredient alone in water (Alternaria solani; [2]) | inhibition of A. solani, ingredient alone in water (Alternaria solani; Concentration 0.50%) | inhibition of A. solani, ingredient alone in water (Alternaria solani; Concentration 1.00%) | inhibition of A. solani, ingredient alone in water (Alternaria solani; Concentration 2.00%) | inhibition of A. solani, ingredient alone in water (Alternaria solani; Concentration 3.00%) | inhibition of A. solani, ingredient alone in water (Alternaria solani; Concentration 6.00%) | further results
1 | [Cl-].[K+] [KCl 0.24%] | 10.83% | 51.35% | 69.10% | 75.81% | 83.20% | 94.91% | 97.43% | 4.7% | 2.2% | 1.4% | 0.1% | 0.3% | 7.9% | >10% | 1.2% | −3.6% | −3.9% | −8.9% | −1.3% | −1.2% | inhibition of Z. tritici, ingredient alone in water ([1]; Concentration 10.00%): 3.8%; EC95 (%) [1]: >10%; inhibition of A. solani, ingredient alone in water (Alternaria solani; Concentration 10.00%): −2.9%
2 | boron ethanolamine [Bo 0.49%] | 17.33% | 68.80% | 84.60% | 90.99% | 95.55% | 98.96% | 99.00% | 8.6% | 7.6% | 5.3% | −1.6% | −0.8% | −4.3% | >10% | 6.5% | 0.9% | −0.5% | −2.6% | 2.4% | −3.6% | inhibition of Z. tritici, ingredient alone in water ([1]; Concentration 10.00%): −1.0%; inhibition of A. solani, ingredient alone in water (Alternaria solani; Concentration 10.00%): −3.3%
3 | O=S(=O)([O-])[O-].[Zn+2] [Zn 7%] | 7.02% | 50.25% | 65.51% | 99.08% | 99.29% | 98.93% | 99.08% | −4.9% | 28.1% | 39.8% | 44.1% | 47.4% | 65.0% | >10% | −1.4% | 6.3% | 16.6% | 32.1% | 37.2% | 49.7% | inhibition of Z. tritici, ingredient alone in water ([1]; Concentration 10.00%): 77.2%; EC95 (%) [1]: >10%; inhibition of A. solani, ingredient alone in water (Alternaria solani; Concentration 10.00%): 59.1%
4 | O=S(=O)([O-])[O-].[Mn+2] [Mn 3.7%] | 31.02% | 87.05% | 94.13% | 97.24% | 97.70% | 97.72% | 97.79% | 12.9% | 13.8% | 12.9% | 18.6% | 20.0% | 17.0% | >10% | −2.3% | 0.0% | 12.8% | 15.1% | 17.6% | 38.8% | inhibition of Z. tritici, ingredient alone in water ([1]; Concentration 10.00%): 23.1%; EC95 (%) [1]: >10%; inhibition of A. solani, ingredient alone in water (Alternaria solani; Concentration 10.00%): 48.4%
5 | O=S(=O)([O-])[O-].[Mg+2] [Mg 0.5%] | 13.88% | 43.93% | 53.33% | 69.80% | 76.51% | 91.75% | 95.94% | 0.7% | 0.9% | 2.3% | −2.9% | −0.1% | 11.3% | >10% | −1.2% | −8.0% | −2.2% | −1.8% | −1.3% | −2.5% | EC95 (%) [1]: >10%; inhibition of A. solani, ingredient alone in water (Alternaria solani; Concentration 10.00%): −2.4%
